Results as given in patent US11046699B2, “Pyrazolo-pyrimidin-amino-cycloalkyl compounds and their therapeutic uses” (RAPT THERAPEUTICS, INC., priority 2018, dated 2021).

Target: GCN2 (Homo sapiens, UniProt Q9P2K8)
Test: GCN2 enzymatic endpoint assay: phosphorylation of GFP-eIF2α measured by TR-FRET (Lanthascreen)
Format: biochemical
Settings: tested as described in Example 77; compound and/or hydrochloride, dihydrochloride or trifluoroacetic acid salt; read-out: IC 50 Activity
Method in brief: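 Endpoint GCN2 reaction with low ATP (2 μM) and 80 nM GFP-eIF2α, room temperature, 90 minutes. Detection mix with EDTA and Tb-labelled antibody; 520 nm/495 nm emission ratio reported.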

Chain of GCN2 (Q9P2K8 whole entry): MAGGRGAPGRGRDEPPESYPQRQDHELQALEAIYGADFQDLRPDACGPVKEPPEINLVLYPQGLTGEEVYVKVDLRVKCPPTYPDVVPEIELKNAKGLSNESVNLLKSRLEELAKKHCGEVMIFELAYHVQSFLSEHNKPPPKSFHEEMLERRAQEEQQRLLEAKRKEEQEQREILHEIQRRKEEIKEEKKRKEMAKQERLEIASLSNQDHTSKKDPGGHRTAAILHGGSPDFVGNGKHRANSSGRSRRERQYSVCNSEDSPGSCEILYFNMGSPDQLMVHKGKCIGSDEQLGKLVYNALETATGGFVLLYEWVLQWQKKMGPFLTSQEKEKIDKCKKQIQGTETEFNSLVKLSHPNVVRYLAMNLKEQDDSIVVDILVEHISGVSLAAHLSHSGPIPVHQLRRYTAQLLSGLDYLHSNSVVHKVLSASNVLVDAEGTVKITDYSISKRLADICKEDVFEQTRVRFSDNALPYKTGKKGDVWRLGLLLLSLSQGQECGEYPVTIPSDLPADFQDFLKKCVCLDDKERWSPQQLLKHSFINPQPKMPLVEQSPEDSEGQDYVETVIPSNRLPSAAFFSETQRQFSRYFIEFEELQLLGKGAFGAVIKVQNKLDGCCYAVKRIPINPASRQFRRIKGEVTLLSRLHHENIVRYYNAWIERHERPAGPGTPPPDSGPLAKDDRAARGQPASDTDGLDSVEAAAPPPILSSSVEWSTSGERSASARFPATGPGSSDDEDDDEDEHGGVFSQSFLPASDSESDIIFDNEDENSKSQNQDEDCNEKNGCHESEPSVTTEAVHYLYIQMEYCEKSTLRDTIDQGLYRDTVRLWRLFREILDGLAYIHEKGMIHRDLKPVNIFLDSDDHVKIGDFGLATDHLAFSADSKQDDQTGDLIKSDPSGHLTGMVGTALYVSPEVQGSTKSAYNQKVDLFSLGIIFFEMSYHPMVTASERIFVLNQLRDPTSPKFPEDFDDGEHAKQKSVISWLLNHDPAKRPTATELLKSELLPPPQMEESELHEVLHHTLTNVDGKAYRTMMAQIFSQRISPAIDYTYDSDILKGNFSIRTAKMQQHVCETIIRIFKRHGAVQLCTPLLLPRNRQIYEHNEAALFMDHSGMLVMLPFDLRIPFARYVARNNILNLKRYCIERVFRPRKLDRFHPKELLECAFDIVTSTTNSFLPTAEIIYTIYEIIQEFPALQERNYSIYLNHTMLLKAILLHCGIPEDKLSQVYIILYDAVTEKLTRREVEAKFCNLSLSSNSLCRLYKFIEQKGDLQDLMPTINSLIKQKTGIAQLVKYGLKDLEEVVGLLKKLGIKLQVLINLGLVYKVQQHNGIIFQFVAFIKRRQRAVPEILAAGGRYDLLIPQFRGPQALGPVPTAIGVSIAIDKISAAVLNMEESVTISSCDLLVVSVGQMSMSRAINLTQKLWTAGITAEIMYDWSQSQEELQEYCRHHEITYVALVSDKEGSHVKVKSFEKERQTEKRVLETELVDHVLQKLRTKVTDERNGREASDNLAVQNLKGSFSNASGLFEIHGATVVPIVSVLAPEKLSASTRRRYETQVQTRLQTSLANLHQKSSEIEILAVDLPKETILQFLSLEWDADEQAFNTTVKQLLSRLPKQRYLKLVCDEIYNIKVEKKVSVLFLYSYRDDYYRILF

SMILES | IC50 [µM]
CNC(=O)[C@]1(C)CC[C@@H](Nc2ncc3c(Br)nn(-c4ccc(-c5cnon5)cc4)c3n2)C1 [(1R,3R)-3-[[3-bromo-1-[4-(1,2,5-oxadiazol-3-yl)phenyl]pyrazolo[3,4-d]pyrimidin-6-yl]amino]-N,1-dimethyl-cyclopentane-carboxamide] | 0.025 to 0.2
CNC(=O)C1(C)CC[C@@H](Nc2ncc3c(Br)nn(-c4ccc(-c5nc(C)no5)cc4)c3n2)C1 (stereo partly drawn) [(3R)-3-[[3-bromo-1-[4-(3-methyl-1,2,4-oxadiazol-5-yl)phenyl]pyrazolo[3,4-d]pyrimidin-6-yl]amino]-N,1-dimethyl-cyclopentanecarboxamide] | 0.025 to 0.2
CNC(=O)[C@]1(C)CC[C@@H](Nc2ncc3c(Br)nn(-c4ccc5c(c4)OC(C)C(=O)N5C)c3n2)C1 (stereo partly drawn) [(1R,3R)-3-[[3-bromo-1-(2,4-dimethyl-3-oxo-1,4-benzoxazin-7-yl)pyrazolo [3,4-d]pyrimidin-6-yl]amino]-N,1-dimethyl-cyclopentanecarboxamide] | 0.025 to 0.2
CNC(=O)[C@]1(C)CC[C@@H](Nc2ncc3c(Br)nn(-c4cc5c(c(OCC(F)F)c4)N(C)C(=O)CO5)c3n2)C1 [(1R,3R)-3-[[3-bromo-1-[5-(2,2-difluoro-ethoxy)-4-methyl-3-oxo-1,4-benzoxazin-7-yl]pyrazolo[3,4-d]pyrimidin-6-yl]amino]-N,1-dimethyl-cyclopentanecarboxamide] | < 0.025
CN(C)S(=O)(=O)C1CC[C@@H](Nc2ncc3c(Br)nn(-c4cc(F)c5ncccc5c4)c3n2)C1 (stereo partly drawn) [(3R)-3-((3-bromo-1-(8-fluoroquinolin-6-yl)-1H-pyrazolo[3,4-d]pyrimidin-6-yl)amino)-N,N-dimethylcyclopentane-1-sulfonamide] | 0.025 to 0.2
N#CCN1CCN(C(=O)[C@@H]2CC[C@@H](Nc3ncc4c(Br)nn(-c5cc(F)c6ncccc6c5)c4n3)C2)CC1 [2-[4-[(1R,3R)-3-[[3-bromo-1-(8-fluoro-6-quinolyl)pyrazolo[3,4-d]pyrimidin-6-yl]amino]cyclopentanecarbonyl]piperazin-1-yl]acetonitrile] | 0.025 to 0.2
CNC(=O)[C@]1(C)CC[C@@H](Nc2ncc3c(Br)nn(-c4cccc(NC(=O)c5cncnc5)c4)c3n2)C1 [N-[3-[3-bromo-6-[[(1R,3R)-3-methyl-3-(methylcarbamoyl)cyclopentyl]amino]pyrazolo[3,4-d]pyrimidin-1-yl]phenyl] pyrimidine-5-carboxamide] | 0.025 to 0.2
O=C1CN(C(=O)[C@@H]2CC[C@@H](Nc3ncc4c(Br)nn(-c5cc(C(F)F)c6ncccc6c5)c4n3)C2)CCN1 [4-((1R,3R)-3-((3-bromo-1-(8-(difluoromethyl)quinolin-6-yl)-1H-pyrazolo[3,4-d]pyrimidin-6-yl)amino)cyclopentane-1-carbonyl)piperazin-2-one] | 0.025 to 0.2
Cc1nnc(-c2ccc(-n3nc(Br)c4cnc(N[C@@H]5CC[C@@](C)(CO)C5)nc43)cc2CCC#N)s1 [3-[5-[3-bromo-6-[[(1R,3R)-3-(hydroxy-methyl)-3-methyl-cyclopentyl]amino]pyrazolo[3,4-d]pyrimidin-1-yl]-2-(5-methyl-1,3,4-thiadiazol-2-yl)phenyl] propanenitrile] | 0.025 to 0.2
C[C@@H]1CNC[C@H](C)N1C(=O)[C@@H]1CC[C@@H](Nc2ncc3c(Br)nn(-c4ccc5ncccc5c4)c3n2)C1 [((1R,3R)-3-((3-bromo-1-(quinolin-6-yl)-1H-pyrazolo[3,4-d]pyrimidin-6-yl)amino)cyclo-pentyl)((2R,6S)-2,6-dimethylpiperazin-1-yl)methanone] | < 0.025
CNC(=O)[C@@H]1CC[C@@H](Nc2ncc3c(Br)nn(-c4ccc(N5CCOCC5)c(C#N)c4)c3n2)C1 [(1R,3R)-3-((3-bromo-1-(3-cyano-4-morpholinophenyl)-1H-pyrazolo[3,4-d]pyrimidin-6-yl)amino)-N-methylcyclo-pentane-1-carboxamide] | 0.5 to 1
CNC(=O)[C@]1(C)CC[C@@H](Nc2ncc3c(Br)nn(-c4cc(F)cc(CC#N)c4)c3n2)C1 [(1R,3R)-3-[[3-bromo-1-[3-(cyanomethyl)-5-fluoro-phenyl]pyrazolo[3,4-d]pyrimidin-6-yl]amino]-N,1-dimethyl-cyclopentane-carboxamide] | 0.025 to 0.2
COCCNC(=O)[C@@]1(C)CC[C@@H](Nc2ncc3c(Br)nn(-c4ccc5ncccc5c4)c3n2)C1 [(1S,3R)-3-((3-bromo-1-(quinolin-6-yl)-1H-pyrazolo[3,4-d]pyrimidin-6-yl)amino)-N-(2-methoxyethyl)-1-methylcyclopentane-1-carboxamide] | 0.5 to 1
CNC(=O)[C@]1(C)CC[C@@H](Nc2ncc3c(Br)nn(-c4ccc(-c5nnc(COC)o5)cc4)c3n2)C1 [(1R,3R)-3-[[3-bromo-1-[4-[5-(methoxy-methyl)-1,3,4-oxadiazol-2-yl]phenyl]pyrazolo [3,4-d]pyrimidin-6-yl]amino]-N,1-dimethyl-cyclopentanecarboxamide] | 0.025 to 0.2
Cc1cn2c(n1)CN(C(=O)[C@@H]1CC[C@@H](Nc3ncc4c(Br)nn(-c5cc(F)c6ncccc6c5)c4n3)C1)CC2 [[(1R,3R)-3-[[3-bromo-1-(8-fluoro-6-quinolyl)pyrazolo[3,4-d]pyrimidin-6-yl]amino]cyclo-pentyl]-(2-methyl-6,8-dihydro-5H-imidazo [1,2-a]pyrazin-7-yl)methanone] | 0.025 to 0.2
CNC(=O)[C@]1(C)CC[C@@H](Nc2ncc3c(Br)nn(-c4cc(CCNC(=O)/C=C/CN(C)C)c5ncccc5c4)c3n2)C1 [(1R,3R)-3-[[3-bromo-1-[8-[2-[[(E)-4-(dimethylamino)but-2-enoyl]amino]ethyl]-6-quinolyl]pyrazolo[3,4-d]pyrimidin-6-yl]amino]-N,1-dimethyl-cyclopentane-carboxamide] | 0.025 to 0.2
CNC(=O)[C@]1(C)CC[C@@H](Nc2ncc3c(Br)nn(-c4ccc(-c5ccn(C)n5)cc4)c3n2)C1 [(1R,3R)-3-[[3-bromo-1-[4-(1-methyl-pyrazol-3-yl)phenyl]pyrazolo[3,4-d]pyrimidin-6-yl]amino]-N,1-dimethyl-cyclopentanecarboxamide] | 0.025 to 0.2
CC(C)OCCNC(=O)[C@@H]1CC[C@@H](Nc2ncc3c(Br)nn(-c4ccc5ncccc5c4)c3n2)C1 [(1R,3R)-3-((3-bromo-1-(quinolin-6-yl)-1H-pyrazolo[3,4-d]pyrimidin-6-yl)amino)-N-(2-isopropoxyethyl)cyclopentane-1-carboxamide] | 0.2 to 0.5
C[C@H]1CN(C)C(=O)CN1C(=O)[C@@H]1CC[C@@H](Nc2ncc3c(Br)nn(-c4cc(F)c5ncccc5c4)c3n2)C1 [(S)-4-((1R,3R)-3-((3-bromo-1-(8-fluoroquinolin-6-yl)-1H-pyrazolo[3,4-d]pyrimidin-6-yl)amino)cyclopentane-1-carbonyl)-1,5-dimethyl-piperazin-2-one] | 0.025 to 0.2
CNC(=O)[C@]1(C)CC[C@@H](Nc2ncc3c(Br)nn(-c4ccc5c(c4)NC(=O)COC5)c3n2)C1 [(1R,3R)-3-[[3-bromo-1-(2-oxo-1,5-dihydro-4,1-benzoxazepin-8-yl)pyrazolo[3,4-d]pyrimidin-6-yl]amino]-N,1-dimethyl-cyclopentanecarboxamide] | 0.025 to 0.2
CNC(=O)[C@]1(C)CC[C@@H](Nc2ncc3c(Br)nn(-c4ccc(-c5nnc(C(=O)N6CCNCC6)s5)cc4)c3n2)C1 [(1R,3R)-3-[[3-bromo-1-[4-[5-(piperazine-1-carbonyl)-1,3,4-thiadiazol-2-yl]phenyl]pyrazolo[3,4-d]pyrimidin-6-yl]amino]-N,1-dimethyl-cyclopentanecarboxamide] | 0.025 to 0.2
